# Data taken from publication PMC4754833, “Rilpivirine analogs potently inhibit drug-resistant HIV-1 mutants” (Retrovirology, 2016).
# Tests used:
# [1] = system: HIV-1 RT mutant E138K/M184V; experiment: single round infection assay, E138K/M184V; type: cell-based; settings: for fold-change of IC50 of the mutant relative to WT: E138K/M184V vs WT; for IC50: ± SD, n=4
# Experimental: (§1) The human osteosarcoma cell line, HOS, was obtained from Dr. Richard Schwartz (Michigan State University, East Lansing, MI) and grown in Dulbecco’s modified Eagle’s medium (Invitrogen, Carlsbad, CA) supplemented with 5 % (v/v) fetal bovine serum, 5 % newborn calf serum, and penicillin (50 units/ml) plus streptomycin (50 µg/ml; Quality Biological, Gaithersburg, MD). Virion production and single-round infectivity assays were used to determine antiviral activity (IC50 values) of the compounds as previously described.
# (§2) pNLNgoMIVR-ΔEnv.LUC has been described previously. The RT open reading frame was removed from pNLNgoMIVR-ΔEnv.LUC (digestion with SpeI and SalI) and inserted between the SpeI and SalI sites of pBluescript II KS+. Using that construct as the wild-type template, we prepared the following HIV-1 RT mutants using the QuikChange II XL (Stratagene, La Jolla, CA) site-directed mutagenesis protocol kit: L100I, K103N, Y181C, Y188L, H221Y, K103N/Y181C, G190A, G190S, M230L, P236L, L100I/K103N, K103N/P225H, V106A/G190A/F227L, V106A, L234I, V106A/F227L, V106A/L234I, V106A/F227L/L234I, E40K, D67E, K101E, V111A, E138K, M184I, M184V, K101E/M184I, K101E/M184V, E138K/M184I, E138K/M184V, K101P, Y181I, and K101P/V179I. The following sense oligonucleotides were used with matching cognate antisense oligonucleotides (not shown) (Integrated DNA Technologies, Coralville, IA) in the mutagenesis: L100I, 5′-[…]-3′; L100I 2-103, 5′-[…]-3′; K103N, 5′-[…]-3′; Y181C, 5′-[…]-3′; Y188L, 5′-[…]-3′; H221Y, 5′-[…]-3′; G190A, 5′-[…]-3′; G190S, 5′-[…]-3′; P225H, 5′-[…]-3′; F227, 5′-[…]-3′; M230L, 5′-[…]-3′; P236L, 5′-[…]-3′; V106A, 5′-[…]-3′; L234I, 5′-[…]-3′; E40K, 5′-[…]-3′; D67E, 5′-[…]-3′; K101E, 5′-[…]-3′; V111A, 5′-[…]-3′; E138K, 5′-[…]-3′; M184I, 5′-[…]-3′; M184V, 5′-[…]-3′; K101P, 5′-[…]-3′; Y181I, 5′-[…]-3′; K101P/V179I, 5′-[…]-3′. The double mutants K103N/Y181C, K103N/P225H, and L100I/K103N were made using the previously generated K103N mutant and the appropriate oligonucleotides to add the second mutation, Y181C, P225, and L100I respectively. The double mutants V106A/F227L and V106A/L234I were prepared using the previously generated V106A mutant and the appropriate oligonucleotides to add the second mutation, F227L and L234I, respectively. The double mutants K101E/M184I and K101E/M184V were constructed using the previously generated K101E mutant and the appropriate oligonucleotides to add the second mutation, M184I and M184V, respectively. The double mutants E138K/M184I and E138K/M184V were constructed using the previously generated E138K mutant and the appropriate oligonucleotides for the second mutation, M184I and M184V, respectively. The triple mutant V106A/F227L/L234I was made using the previously generated V106A/F227L double mutant and the appropriate oligonucleotides for the third mutation, L234I. The triple mutant V106A/G190A/F227L was constructed in a series of steps using the previously generated V106A mutant and the appropriate oligonucleotides for the second mutation, G190A, to generate the double mutant V106A/G190A, and then the triple mutant was made using double mutant V106A/G190A and oligonucleotides for the third mutation, F227L. The DNA sequence of each construct was verified by DNA sequence determination. The sequences encoding the mutant RTs were then subcloned into pNLNgoMIVR-ΔEnv.LUC (between the KpnI and SalI sites) to produce the mutant HIV-1 constructs. These DNA sequences were also checked independently by DNA sequence determination.
# (§3) 10.1186/s12977-016-0244-2 The IC50 values (nM) of RPV and the RPV analogs were determined against the NNRTI resistant mutants were measured by using a single round infection assay, n = 4. The concentrations (nM) are measured by reductions in luciferase reporter activity followed by the standard deviations. […]
# HIV-1 RT mutant M230L = experiment: single round infection assay, M230L; type: cell-based; settings: for IC50: ± SD, n=4, limit of detection 100 nM; for fold-change of IC50 of the mutant relative to WT: M230L vs WT
# Experimental: as §1, §2, §3
# HIV-1 RT mutant K101E = experiment: single round infection assay, K101E; type: cell-based; settings: for IC50: ± SD, n=4; for fold-change of IC50 of the mutant relative to WT: K101E vs WT
# Experimental: as §1, §2, §3
# WT HIV-1 = experiment: single round infection luciferase assay, WT HIV-1; type: cell-based; settings: Human immunodeficiency virus 1
# Experimental: as §1, §2, §3
# HIV-1 RT mutant D67E = experiment: single round infection assay, D67E; type: cell-based; settings: for fold-change of IC50 of the mutant relative to WT: D67E vs WT; for IC50: ± SD, n=4
# Experimental: as §1, §2, §3
# HIV-1 RT mutant E40K = experiment: single round infection assay, E40K; type: cell-based; settings: for fold-change of IC50 of the mutant relative to WT: E40K vs WT; for IC50: Human immunodeficiency virus 1, E40K, ± SD, n=4
# Experimental: as §1, §2, §3
# HIV-1 RT mutant H221Y = system: HIV-1 RT mutant H221Y; design: method as in PMID 23217210; settings: previous study; cited from earlier work
# [2] = system: HIV-1 RT mutant K101E/M184V; experiment: single round infection assay, K101E/M184V; type: cell-based; settings: for fold-change of IC50 of the mutant relative to WT: K101E/M184V vs WT; for IC50: ± SD, n=4
# Experimental: as §1, §2, §3
# [3] = system: HIV-1 RT mutant V106A/F227L/L234I; experiment: single round infection assay, V106A/F227L/L234I; type: cell-based; settings: for IC50: ± SD, n=4; for fold-change of IC50 of the mutant relative to WT: V106A/F227L/L234I vs WT
# Experimental: as §1, §2, §3
# HIV-1 RT mutant V106A = experiment: single round infection assay, V106A; type: cell-based; settings: for IC50: ± SD, n=4; for fold-change of IC50 of the mutant relative to WT: V106A vs WT
# Experimental: as §1, §2, §3
# HIV-1 RT mutant P236L = experiment: single round infection assay, P236L; type: cell-based; settings: for IC50: Human immunodeficiency virus 1; for fold-change of IC50 of the mutant relative to WT: P236L vs WT
# Experimental: as §1, §2, §3
# HIV-1 RT mutant Y181C = system: HIV-1 RT mutant Y181C; design: method as in PMID 23217210; settings: previous study; cited from earlier work
# HIV-1 RT mutant K101P = experiment: single round infection assay, K101P; type: cell-based; settings: Human immunodeficiency virus 1
# Experimental: as §1, §2, §3
# [4] = Human immunodeficiency virus 1, E138K/M184V
# [5] = Human immunodeficiency virus 1, M230L
# [6] = Human immunodeficiency virus 1, K101E
# [7] = Human immunodeficiency virus 1, D67E
# [8] = Human immunodeficiency virus 1, V106A/F227L/L234I (selected by DOR)
# [9] = V106A/F227L/L234I (selected by DOR)
# [10] = Human immunodeficiency virus 1, V106A (selected by DOR)
# [11] = Human immunodeficiency virus 1, K101E/M184V
Compound,fold-change of IC50 of the mutant relative to WT [1],IC50 ([1]; E138K/M184V) [nM],"IC50 [1, 4] [nM]",IC50 (HIV-1 RT mutant M230L; [5]) [nM],fold-change of IC50 of the mutant relative to WT (HIV-1 RT mutant M230L),IC50 (HIV-1 RT mutant K101E; [6]) [nM],fold-change of IC50 of the mutant relative to WT (HIV-1 RT mutant K101E),IC50 (WT HIV-1) [nM],fold-change of IC50 of the mutant relative to WT (HIV-1 RT mutant D67E),IC50 (HIV-1 RT mutant D67E; [7]) [nM],fold-change of IC50 of the mutant relative to WT (HIV-1 RT mutant E40K),IC50 (HIV-1 RT mutant H221Y) [nM],fold-change of IC50 of the mutant relative to WT [2],"IC50 [3, 8] [nM]","IC50 [3, 9] [nM]",fold-change of IC50 of the mutant relative to WT [3],fold-change of IC50 of the mutant relative to WT (HIV-1 RT mutant V106A),IC50 (HIV-1 RT mutant P236L) [nM],IC50 (HIV-1 RT mutant Y181C) [nM],IC50 (HIV-1 RT mutant K101P) [nM],further results
Cc1cc(/C=C/C#N)cc(C)c1Nc1ncc(N)c(Nc2ccc(C#N)cc2)n1 [compound 9],4,5.5 ± 1,< 6,29.6,23,< 6,3,1.3 ± 0.2,3,< 6,2,< 7,< 2,< 5,6.4 ± 1.8,5,< 2,1.7 ± 0.7,< 7,> 100,IC50 (HIV-1 RT mutant K101E; K101E): 4.1 ± 1.5 nM; IC50 (HIV-1 RT mutant D67E; D67E): 4.2 ± 0.8 nM; IC50 (HIV-1 RT mutant V106A; [10]): < 5 nM; IC50 (HIV-1 RT mutant V106A; V106A (selected by DOR)): 2.5 ± 1.2 nM; fold-change of IC50 of the mutant relative to WT (HIV-1 RT mutant P236L): < 2
COc1ccc(Cn2cnc3c(Nc4ccc(C#N)cc4)nc(Nc4c(C)cc(/C=C/C#N)cc4C)nc32)cc1 [compound 12],7,–,4.9 ± 0.99,13.8,21,3.3 ± 0.3,5,0.67 ± 0.06,43,29 ± 6.9,< 2,< 7,3,–,–,< 2,< 2,0.8 ± 0.2,< 7,> 100,"IC50 (HIV-1 RT mutant E40K): 1 ± 0.04 nM; IC50 [2, 11]: 1.8 ± 0.21 nM; fold-change of IC50 of the mutant relative to WT (HIV-1 RT mutant P236L): < 2"
CC(=O)c1ccc(Nc2nc(Nc3c(C)cc(/C=C/C#N)cc3C)nc3[nH]cnc23)cc1 [compound 14],2,–,–,–,7,< 2.5,4,0.41 ± 0.08,4,< 2.5,< 2,< 7,< 2,< 5,2.7 ± 0.64,7,10,0.15 ± 0.05,< 7,> 100,IC50 (HIV-1 RT mutant K101E; K101E): 1.7 ± 0.5 nM; IC50 (HIV-1 RT mutant D67E; D67E): 1.7 ± 0.21 nM; IC50 (HIV-1 RT mutant V106A; [10]): < 5 nM; IC50 (HIV-1 RT mutant V106A; V106A (selected by DOR)): 4.3 ± 0.5 nM
COc1ccc(Nc2nc(Nc3c(C)cc(/C=C/C#N)cc3C)nc3[nH]cnc23)cc1 [compound 16],10,1.7 ± 0.35,< 2.5,–,15,–,5,0.17 ± 0.01,16,< 2.5,< 2,< 7,2,< 5,3 ± 0.8,18,3,0.2,< 7,> 100,IC50 (HIV-1 RT mutant D67E; D67E): 2.7 ± 0.8 nM; fold-change of IC50 of the mutant relative to WT (HIV-1 RT mutant P236L): < 2
Cc1cc(/C=C/C#N)cc(C)c1Nc1nc(Nc2ccc(F)cc2)c2nc[nH]c2n1 [compound 17],< 2,–,2.3 ± 0.02,21.1,10,8.9,4,2.2 ± 0.4,12,26,3,< 7,4,–,–,6,2,1.2,< 7,100,"IC50 (HIV-1 RT mutant E40K): 6.4 nM; IC50 [2, 11]: 8.1 nM; IC50 (HIV-1 RT mutant V106A; [10]): < 5 nM; IC50 (HIV-1 RT mutant V106A; V106A (selected by DOR)): 2.7 ± 0.64 nM"
Cc1cc(/C=C/C#N)cc(C)c1Nc1nc(Nc2ccc3scnc3c2)c2nc[nH]c2n1 [compound 21],6,2.3 ± 0.7,< 2.5,< 6.1,15,3.9 ± 0.14,10,0.41 ± 0.1,9,3.6 ± 0.6,2,< 7,6,< 5,4.3 ± 0.8,10,3,0.32 ± 0.09,< 7,> 100,"IC50 (HIV-1 RT mutant M230L; M230L): 6.1 ± 0.14 nM; IC50 [2, 11]: < 2.5 nM; IC50 ([2]; K101E/M184V): 2.4 ± 0.2 nM"
